Values of other authors in patent US9925167B2, “Agents for the control of parasites on animals” (Hansen-AB GmbH, priority 2011, dated 2018).

Key:
[1] = tested on: paresthesias; conditions: humans
[2] = tested on: hepatotoxic damage; conditions: orally administered; Aldana et al. 2001
[3] = tested on: fenvalerate-induced skin sensitizations; conditions: guinea pigs, Malley et al. 1985

In the case of `CC(=O)Oc1c(C)c(C)c2c(c1C)CC[C@@](C)(CCC[C@H](C)CCC[C@H](C)CCCC(C)C)O2` [vitamin E acetate, Alpha-tocopheryl acetate], the “Effect on paresthesias triggered by cyano-pyrethroid active substances such as fenvalerate” value ([1]; Flannigan et al. 1985) is given as “positive effects”, the “Effect of topical application in paresthesias after pyrethroid-induced damage” value ([1]; topical, Bradberry et al. 2005) is given as “positive effect” and the “Effect on hepatotoxic damage after i.p. application of cypermethrin” value [2] is given as “positive effects”.

In the case of vitamin E, the “Effect of dermal pre-treatment on fenvalerate-induced skin sensitizations” value [3] is given as “reduction”.
